These results are taken from US6034066A, “Cysteine protease inhibitors for use in treatment of IGE mediated allergic diseases” (Peptide Therapeutics Limited, priority 1995, dated 2000).

One assay deals with T1, Der p I (Dermatophagoides pteronyssinus, UniProt P08176).
T1 construct: tissue SmithKline-Beecham (crude mite extract); host or cells: house dust mite extract, purified on immobilised anti-Der p I antibody 4C1
T1 sequence (P08176 99-320): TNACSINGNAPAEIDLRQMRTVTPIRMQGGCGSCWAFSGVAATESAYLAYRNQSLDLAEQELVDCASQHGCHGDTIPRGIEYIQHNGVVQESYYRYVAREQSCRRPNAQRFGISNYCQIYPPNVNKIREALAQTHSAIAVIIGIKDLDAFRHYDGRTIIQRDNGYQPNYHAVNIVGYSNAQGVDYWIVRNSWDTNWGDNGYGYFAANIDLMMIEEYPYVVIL
As to the kind of experiment: Inhibition (inactivation) kinetics of Der p I, fluorogenic substrate assay. It counts as biochemical. The note with it: second order inactivation rate constant; 50 mM potassium phosphate pH 8.25, 1 mM EDTA, 1 mM DTT, 25° C.; purified Der p I. The method, then:
All Der-p I enzyme assays were routinely carried out in 50 mM potassium phosphate; pH 8.25 containing 1 mM ethylenediaminetetraaceticacid (EDTA) and 1 mM dithiothreitol (DTT). Product formation was monitored with respect to time by measuring the increase in fluorescence emission at 420 nm and exciting at 320 nm. All assays were carried out at 25° C. Stock solutions of the various substrates and/or inhibitors were made up in 100% dimethylsulphoxide (DMSO).
The reaction of enzyme and inhibitor is comprised of two steps. The first is binding of enzyme and inhibitor to produce the enzyme inhibitor complex (E.I). This step is assumed to be rapid and reversible, relative to the other steps, and no chemical reaction occurs. In this case k1 is the second order rate constant for the formation of the E.I complex and k-1 is the first order rate constant for the breakdown of the E.I. The second step in the process, occurring at a rate k2, is the formation of the enzyme-inhibitor covalent complex (EI) resulting in irreversible inactivation of the enzyme.
The practice of inactivation kinetics of enzymes have been described by two standard accepted methods (Schemes 1 and 2). The first (Scheme 1) is the dilution method described by Kitz, C. G. and Wilson, I. B., (1962), J. Biol. Chem., 237, 3245-3249. In this case enzyme and inhibitor are pre-incubated for a set period of time prior to quenching of this reaction by the addition of an excess of substrate. The second method (Scheme 2), is monitoring enzyme inactivation in the presence of substrate and irreversible inhibitors. This method has been described previously (Tian, W. -X. & Tsou, C. -L, (1982), Biochemistry, 21, 1028-1032; Morrison, J. F. & Walsh, C. T., (1988), Adv. Enzymol. Relat. Areas Mol. Biol., 61, 201-301) and the equations describing the kinetics are shown below (Eq. 1, 2 and 3). In both cases the inhibitor concentration employed is at least 10 times greater than the enzyme concentration in order to maintain pseudo-first order conditions.
kapp =k2 [I]/1+[S]/KM [I]+K1) Eq. 1
[Product]=vs t+(v0 -v5)[1-exp(-kapp t)]/kapp +dEq.
second order rate constant=(kapp /[I])(1+[S]/KM) Eq. 3
The apparent inactivation rate constant (kapp) was calculated using Eq. 2; where vo is the initial velocity of the reaction, vs is asymptotic steady-state velocity of the reaction, d is the intercept at time zero. The second order rate was calculated using Eq. 3.
Assays were routinely carried out in 50 mM potassium phosphate; pH 8.25 containing 1 mM ethylenediaminetetraaceticacid (EDTA) and 1 mM dithiothreitol (DTT). The fluorogenic substrate was 2-aminobenzoylvalylalanylnorleucylseryl-(3-nitro)tyrosinyl aspartylamide. Product formation was monitored with respect to time by measuring the increase in fluorescence emission at 420 nm and exciting at 320 nm. Assays were carried out at 25° C. Stock solutions of the various inhibitors were made up in 100% dimethylsulphoxide.
Inactivation kinetics for various inhibitors were carried out using the techniques already described. In the dilution method, generally 100 nM Der p I was mixed and incubated with 0.5-10 uM of the inhibitor and aliquots were taken out at given time points (sampling time) and the residual enzyme activity determined by a ten-fold dilution into assay buffer containing saturating amounts of substrate. The residual activity was related to the sampling time and the curve fitted by computational non-linear least square regression analysis. In cases where the second order rate constants were greater than 10^5 M^-1 s^-1, second order conditions were employed (i.e. equimolar amounts of enzyme and inhibitor). Generally stoichiometric amounts of enzyme and inhibitor were incubated for given time intervals (sampling time) and the reaction stopped by a ten-fold dilution of this mixture by saturating amounts of substrate in assay buffer. […]
Regarding `CCOC(=O)/C=C/[C@H](CC(C)C)NC(=O)[C@H](C)NC(=O)[C@@H](NC(=O)N(c1ccccc1)c1ccccc1)C(C)C` [Compound 30], the “kobs /[I]” value is given as 7.5 × 10^3 M^- s^-1.

Consider `CCOC(=O)/C=C/[C@H](CC(C)C)NC(=O)[C@H](C)NC(=O)[C@@H](NC(=O)c1ccccc1)C(C)C` [Compound 26], for which the “kobs /[I]” value was 4.1 × 10^3 M^- s^-1. As for `CC(C)C[C@@H](/C=C/C(=O)OCC(F)(F)F)NC(=O)[C@H](C)NC(=O)[C@@H](NC(=O)OC(C)(C)C)C(C)C` [Compound 25], the “kobs /[I]” value is reported as 3.1 × 10^3 M^- s^-1.

“N-Benzoyl-L-valyl-L-alanyl-L-norleucine 2-furanoxy methyl ketone [Compound 12]”: the “kobs /[I]” value was 1.9 × 10^5 M^- s^-1. The same measure, in the same setting: in the case of `CCOS(=O)(=O)/C=C/[C@H](CC(C)C)NC(=O)[C@H](C)NC(=O)[C@@H](NC(=O)OC(C)(C)C)C(C)C` [Compound 40, Ethyl(S)-(E)-3-((tert-butoxycarbonylamino-L-valyl)-L-alanyl)amino-5-methylhexenylsulfonate] it was 6.9 × 10^4 M^- s^-1; in that of “N-Benzoyl-L-valyl-L-alanyl-L-norleucine 1,1-dimethylpropyloxymethyl ketone [Compound 9]”, 2.3 × 10^4 M^- s^-1. The same measure, in the same setting: the result for `CCOC(=O)/C=C/[C@H](CC(C)C)NC(=O)[C@H](C)NC(=O)[C@@H](NC(=O)Nc1ccccc1)C(C)C` [Compound 29] reads 4.6 × 10^3 M^- s^-1; that for `CCCC[C@H](NC(=O)[C@H](C)NC(=O)[C@@H](NC(=O)c1ccccc1)C(C)C)C(=O)COC(=O)c1c(Cl)cccc1Cl` [Compound 13, N-Benzoyl-L-valyl-L-alanyl-L-norleucine 2,6-dichlorophenylacyloxy methyl ketone], 6.6 × 10^5 M^- s^-1.

The same assay, now with this note: second order inactivation rate constant; 50 mM potassium phosphate pH 8.25, 1 mM EDTA, 1 mM DTT, 25° C.; purified Der p I; read-out: kobs /[I].
Consider `CC(C)C[C@@H](/C=C/S(=O)(=O)c1ccccc1)NC(=O)[C@H](C)NC(=O)[C@@H](NNC(=O)OC(C)(C)C)C(C)C` [Compound 36, (S)-(E)-3-((tert-butoxycarbonylamino-L-valyl)-L-alanyl)amino-1-phenylsulfonyl-5-methyl-1-hexene], for which the kinact/KI is 6400 M⁻¹ s⁻¹.

The next assay addresses T1, Der p I. As to the kind of experiment: Cleavage of membrane CD23 on RPMI 8866 B cells by Der p I, FACS with FITC anti-CD23 (Bu38). It counts as cell-based. The following applies: Der p I pre-incubated 30 min at 37° C. with inhibitor, then added to RPMI 8866 cells; FIG. 1(c). An excerpt:
We have affinity purified Der p I from dust mite extract and tested its ability to proteolytically cleave CD23 expressed on cultured RPMI 8866 B cells, using FITC labelled monoclonal anti-human CD23 (Bu38). […] The proteolytic activity of Der p I was inhibited by E64 (a cysteine protease inhibitor), but not by alpha-1-antitrypsin (a serine protease inhibitor), thereby confirming the cysteine protease nature of Der p I (FIG. 1c). […] A more detailed description of FIG. 1 is as follows:
Cells were analysed on a FACScan (Becton Dickinson, Oxford, UK) with a linear fluorescence setting of 660 volts. The fluorescence (FL1) profile versus forward scatter (FSC) was used to monitor the cells, the amplification scale was altered according to the level of fluorescence. For each sample 4000 events were collected and then analysed using the flowMATE programme (DAKO, High Wycombe, UK). Data presented are representative of 3 replicate experiments, each point in a to c represents the mean of duplicate determinations, FIG. 1(a). Dose and cysteine dependency of CD23 cleavage by Der p I (for method of purification see FIG. 1(d) below). Der p I was pre-incubated (15 min at 37° C.) with or without 5 mM cysteine and added to 2-3×10^5 RPMI 8866 cells in a total volume of […] RPMI 1640+10 mM HEPES. […]
Take “alpha-1-antitrypsin: a naturally occurring human serine protease inhibitor”: the “inhibition of membrane CD23 cleavage by Der p I” value is on record as “no such inhibitory effect”. Same read-out and setting: the result for `CC(C)C[C@H](NC(=O)[C@H]1O[C@@H]1C(=O)O)C(=O)NCCCCN=C(N)N` (relative stereo) [Compound E64, L-trans-epoxysuccinyl-leucylamido (4-guanidino) butane, reference compound] reads “completely inhibits”.
